Like-named read-outs stand apart in the source and are kept apart here.
Experiments:
ATP [1] = tested on: ATP
Protocol: Briefly, 10,000 cpm/uL of radiolabeled ATP is incubated with increasing amounts of NAI or FAI (10% final volume) in 100 mM HEPES buffer, pH 8.0, containing 6 mM MgCl2, 100 mM NaCl. Reactions are stopped by addition of an equal volume of Gel Loading Buffer 11 (Ambion, Inc.) and placed on ice. […] Single adduct reaction rates and percentages are calculated by integrating bands (Image Quant, IM Support) and fit to a single exponential.

5S rRNA [2] = test: Acylation of RNA in E. coli cells; type: cell-based, Escherichia coli
Protocol: Acylation of RNA in E. coli cells. […] E. coli cells are grown to an OD600 of 0.25 at 37° C. in […]. Cells are spun down at 4000×g and decanted. […] Cells are resuspended in a final volume of a fresh solution of 800 μl 0.5 mg/ml lysozyme, TE pH 8.0. 80 μl of 10% SDS is added to the mixture and the slurry is placed at 64° C. for 1-2 min. After incubation add 88 μl 1 M NaOAc, pH5.2 is added. The samples are added to an equal volume (1 ml) of water-saturated phenol (pH <7.0) and incubated at 64° C. for 6 min. The resultant slurry is spun at max speed (14,000 rpm) for 10 min at 4° C. […] Reverse transcription primer used for E. coil 5S rRNA: 5′-[…] (SEQ ID NO: 10).
(§1) Extensions are performed for ten minutes.

[3] = tested on: U1 snRNA, U2 snRNA, SNORD3A; test: Acylation of nuclear RNAs in HeLa S3 cells; type: cell-based, Homo sapiens; settings: HeLa S3, 200 mM final, thirty minutes
Protocol: Cells are then spun down and decanted. […] NO: 12). […] NO:7) (SEQ ID NO:13). […] NO:14). […] Extensions are performed for ten minutes.

human 5S rRNA = test: Acylation of 5S rRNA in vitro (SHAPE)
Protocol: Acylation of RNA, in vitro. In a typical in vitro modification protocol, 6 μg total RNA is heated in metal-free water for two minutes at 95° C. The RNA is then flash-cooled on ice. The RNA 3× SHAPE buffer (333 mM HEPES, pH 8.0, 20 mM MgCl2, 333 mM NaCl) is added and the RNA allowed to equilibrate at 37° C. for ten minutes. To this mixture, 1 μL of 10× electrophile stock in DMSO (+) or DMSO (−) is added. The reaction is permitted to continue until the desired time. Reactions are quenched with 60 μL of DMS stop solution (0.5 M β-mercaptoethanol, 0.75 M Na.acetate, pH 5.5). Reactions are extracted once with acid phenol:chloroform (pH 4.5±0.2) and twice with chloroform. RNA is precipitated with 40 μL of 3M sodium acetate buffer (pH 5.2) and 1 μL of glycogen (20 ug/uL).
as §1

[4] = Hydrolysis of NAI and FAI in aqueous buffer (absorbance decay); type: physicochemical; settings: 100 mM HEPES, 100 mM NaCl, 10 mM MgSO4, pH 8.0; fit f=y0+a*exp(−b*x); in 1/min
Protocol: Hydrolysis of NAI and FAI. Hydrolysis of NAI and FAI is monitored by adding 1.5 μL of a 100 mM solution of either NAI or FAI in spectroscopic grade DMF to 598.5 μL of buffer (100 mM HEPES, 100 mM NaCl, 10 mM MgSO4, pH 8.0) and monitoring the decrease in absorbance at 265 nm (NAI) or 275 nm (FAI). Three parameter pseudo-first order exponential decay kinetics are fit using OriginPro 8.0 software using the equation: f=y0+a*exp(−b*x)

5S rRNA [5] = type: cell-based, mouse
Protocol: (§2) Cells are then spun down and decanted. […] Extensions are performed for ten minutes.

5S rRNA [6] = test: Acylation of RNA in yeast cells; type: cell-based, Saccharomyces cerevisiae
Protocol: Acylation of RNA in yeast cells. […] Yeast cells are grown to an OD600 of 1.0 at 30° C. in YPD medium. Cells are spun down at 4000×g and decanted. […] Cells are then spun down, decanted, and flash frozen in liquid nitrogen. Frozen pellets are resuspended in 500 uL of 50 mM NaOAc pH5.0, 10 mM EDTA pH 8.0 and 100 uL of 10% SDS. […] Cells are incubated at 65° C. for 1 minute. The freeze thaw cycle is repeated three times.
as §1

ATP [7] = test: ATP gel shift acylation
From the text: ATP gel shift. […] Chem. Soc. 127, 4223-4231, (2005).

5S rRNA [8] = type: cell-based; settings: cultured human cancer cells
Protocol: as §2

5S rRNA [9] = type: cell-based, Drosophila melanogaster; settings: Drosophila S2 cells
Protocol: as §2

Solubility = type: physicochemical
ATP [10] = settings: see Weeks et al., J. Am. Chem. Soc. 127, 4223-4231, 2005; cited from earlier work
HOTAIR = test: Secondary structure probing of in vitro transcribed HOTAIR RNA; settings: 5′ end of HOTAIR
Protocol: ABI-1 as a probe of RNA secondary structure. To evaluate the compound's ability to modify RNA at conformationally flexible positions ABI-1 was tested in comparison to NMIA. […] After incubation, the RNA was extracted and precipitated with ethanol.
ABI-1 Reversible Modification and Cell-Permeability. […] FIG. 15A.

Structure (SMILES)	Result (qualitative: reactivity toward ATP, hydrolysis, solubility) (ATP [1])	5S rRNA modification in cells (5S rRNA [2])	Modification of nuclear, lower abundant RNAs [3]	Sites of modification mapped to predicted secondary structure (human 5S rRNA)	Cell attachment, morphology and trypan blue staining (V6.5 mESCs)	b (pseudo-first order exponential decay constant of hydrolysis) [4]	Time at which modification signal begins to plateau (5S rRNA [5]; 100 mM NAI, murine ESCs) [min]	Time to 5S rRNA modification with suitable signal-to-noise ratio (5S rRNA [5]; 100 mM NAI, murine ESCs)	5S rRNA modification in cells (reverse transcription blocks) (5S rRNA [5]; live mouse ESC, aqueous buffer)	Extent of modification in cells, comparison of probes (5S rRNA [5]; same concentration)	5S rRNA modification in cells (5S rRNA [6])	Retained reactivity with ATP in aqueous buffer (ATP [7])	5S rRNA modification in cells (5S rRNA [8])	5S rRNA modification in cells (5S rRNA [9])	maximum solubility (Solubility) [mM]	Retained reactivity in aqueous buffer (ATP [10])	Mapping of RNA secondary structure (HOTAIR)
N#CC(=O)OCc1ccccc1	Too Reactive, High Hydrolysis	–	–	–	–	–	–	–	–	–	–	–	–	–	–	–	–
Cc1ncccc1C(=O)n1ccnc1 [NAI, 2-methylnicotinic acid imidizolide]	–	modifies 5S rRNA	modifies nuclear, lower abundant RNAs	map to residues that are predicted to be flexible	remained attached to tissue culture vessel, appeared morphologically normal and unstained by trypan blue	.020476	≤ 15	in as little as one minute	caused blocks in subsequent reverse transcription	greater extent of modification than FAI	modifies 5S rRNA	retain reactivity with ATP at 120 minutes	modifies 5S rRNA	modifies 5S rRNA	–	–	–
Cn1c(=O)oc(=O)c2ccccc21 [NMIA, N-methylisotoic anhydride]	–	–	–	map to residues that are predicted to be flexible	–	–	–	–	–	–	–	–	–	–	13	mostly quenched after thirty minutes	successfully mapped the predicted secondary structure of the 5′ end of HOTAIR
